Reference: patent publication US7605154B2, “Substituted Thiazolo [4,5-d]pyrimidines as protein kinase inhibitors” (Janssen Pharmaceutica N.V., priority 2005, dated 2009)

Target: T1, EGFR (Homo sapiens, UniProt P00533)
T1 construct: started at nucleotide 2189 (corresponding to amino acid 667) and ended at the termination codon; made in house; host or cells: Sf9 insect cells (baculovirus)
Experiment: EGFR Kinase Assay
Type: biochemical
Settings: GST-EGFR, 5 μM ATP
Excerpt: The portion was PCR amplified with primers that added the lambda attB sequences to each end, recombined into an entry vector, then into a, GST destination vector (as described in Gateway Technologies Manual by Invitrogen Corporation, Carlsbad, Calif.).
The destination vector was recombined in the DH10BAC strain of bacteria to produce a bacmid. The bacmid was transfected into Sf 9 cells and the supernatant containing the baculovirus was collected. The GSTEGFR protein was purified using large cultures of Sf 9 cells infected with stock virus. After an appropriate period of time, the cells were collected and lysed. The GSTEGFR was then purified from the lysate on Glutathione-Sepharose columns (as described by Amersham Biosciences, Buckinghamshire, United Kingdom).
The free biotin was separated from the biotinylated polyGluTyr on a gel filtration column.
A mixture of a 10× kinase buffer (500 mM Tris at pH 8.0, 100 mM Magnesium Chloride and 1 mM Sodium Vanadate), DTT (1 mM final from 500 mM stock), ATP (5 μM final from 10 mM stock), biotinylated polyGluTyr (10 μg/μL stock), γ-^33P ATP (10 μCi/μL stock) and water was added to each well (90 μL/well) of a Streptavidin Flashplate (Perkin Elmer, Wellesley, Mass.).
Test compound in 100% DMSO (2 μL) was added to the appropriate wells. Diluted GSTEGFR (1:300 dilution in 50 mM Tris at pH 8.0 and 0.1% bovine serum albumin) (10 μL) was added to the wells to initiate the reactions.
The plates were incubated at 30° C. for 1 hr with shaking. The reacted contents were removed and the plates were sequentially washed three times with a 1×PBS stop buffer (300 μL without Magnesium and Calcium) and 100 mM EDTA. After the final wash, the same stop buffer (200 μL) was added to the wells. The plates were then sealed and read on the TopCount scintillation counter.
Test compounds were assayed in triplicate at 16 concentrations at half-log dilutions starting at 200 uM. A maximum and minimum signal for the assay was determined on each plate. The percent inhibition of a test compound was calculated according to the formula
For a series of test concentrations, the IC50 was derived by graphing percent inhibition against the log of the concentrations tested for a given compound.

T1 sequence (P00533 667-1210 limits assumed): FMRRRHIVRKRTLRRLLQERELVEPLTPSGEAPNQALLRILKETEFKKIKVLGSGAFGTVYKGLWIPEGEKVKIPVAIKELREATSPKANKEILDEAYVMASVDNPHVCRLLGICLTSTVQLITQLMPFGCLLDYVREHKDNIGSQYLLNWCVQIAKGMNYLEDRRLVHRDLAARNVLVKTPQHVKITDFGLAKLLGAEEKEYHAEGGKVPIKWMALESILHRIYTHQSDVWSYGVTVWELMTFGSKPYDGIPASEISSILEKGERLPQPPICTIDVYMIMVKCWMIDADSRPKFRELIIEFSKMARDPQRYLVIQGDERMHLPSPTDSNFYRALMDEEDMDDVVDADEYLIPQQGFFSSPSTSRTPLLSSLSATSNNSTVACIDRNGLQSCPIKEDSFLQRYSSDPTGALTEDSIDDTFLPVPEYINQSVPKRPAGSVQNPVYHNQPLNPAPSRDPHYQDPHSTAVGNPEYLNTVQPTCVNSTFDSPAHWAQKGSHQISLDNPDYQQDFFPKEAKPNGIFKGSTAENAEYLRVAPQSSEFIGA

IC50 [nM]	Structure (SMILES)
6.5	C#Cc1cccc(Nc2ncnc3nc(Nc4ccc(S(=O)(=O)NCCO)cc4)sc23)c1 [Cpd 58, 4-[7-(3-ethynyl-phenylamino)-thiazolo[4,5-d]pyrimidin-2-ylamino]-N-(2-hydroxy-ethyl)-benzenesulfonamide]
733	Clc1cc(Cl)cc(Nc2ncnc3nc(Nc4ccccc4)sc23)c1 [Cpd 91, N^7-(3,5-dichloro-phenyl)-N^2-phenyl-thiazolo[4,5-d]pyrimidine-2,7-diamine]
3.7	Fc1ccc(Nc2ncnc3nc(Nc4ccc(CNC[C@H]5CCCO5)cc4)sc23)cc1Cl [Cpd 67, N^7-(3-chloro-4-fluoro-phenyl)-N^2-(4-{[(2R)-(tetrahydro-furan-2-ylmethyl)-amino]-methyl}-phenyl)-thiazolo[4,5-d]pyrimidine-2,7-diamine]
8.25	C#Cc1cccc(Nc2ncnc3nc(Nc4ccc(CNCCOC(C)C)cc4)sc23)c1 [Cpd 55, N^7-(3-ethynyl-phenyl)-N^2-{4-[(2-isopropoxy-ethylamino)-methyl]-phenyl}-thiazolo[4,5-d]pyrimidine-2,7-diamine]
28.6	C#Cc1cccc(Nc2ncnc3nc(Nc4ccc(OC)nc4)sc23)c1 [Cpd 69, N^7-(3-ethynyl-phenyl)-N^2-(6-methoxy-pyridin-3-yl)-thiazolo[4,5-d]pyrinidine-2,7-diamine]
15	CN(C)C(=O)c1ccc(Nc2nc3ncnc(Nc4ccc(F)c(Cl)c4)c3s2)cc1 [Cpd 27, 4-[7-(3-chloro-4-fluoro-phenylamino)-thiazolo[4,5-d]pyrimidin-2-ylamino]-N,N-dimethyl-benzamide]
7.73	CC(C)OCCNCc1ccc(Nc2nc3ncnc(Nc4ccc(F)c(Cl)c4)c3s2)cc1 [Cpd 53, N^7-(3-chloro-4-fluoro-phenyl)-N^2-{-4-[(2-isopropoxy-ethylamino)-methyl]-phenyl}-thiazolo[4,5-d]pyrimidine-2,7-diamine]
119	Fc1ccc(Nc2ncnc3nc(Nc4cccc(CN5CCOCC5)c4)sc23)cc1Cl [Cpd 3, N^7-(3-chloro-4-fluoro-phenyl)-N^2-(3-morpholin-4-ylmethyl-phenyl)-thiazolo[4,5-d]pyrimidine-2,7-diamine]
82.5	NS(=O)(=O)c1ccc(Nc2nc3ncnc(Nc4ccccc4)c3s2)cc1 [Cpd 80, 4-[7-(phenylamino)-thiazolo[4,5-d]pyrimidin-2-ylamino]-benzenesulfonamide]
27.1	Clc1cccc(Nc2ncnc3nc(Nc4ccccc4)sc23)c1 [Cpd 89, N^7-(3-chloro-phenyl)-N^2-phenyl-thiazolo[4,5-d]pyrirnidine-2,7-diamine]
13.3	CN(Cc1ccc(Nc2nc3ncnc(Nc4ccc(F)c(Cl)c4)c3s2)cc1)C1CCCCC1 [Cpd 21, N^7-(3-chloro-4-fluoro-phenyl)-N^2-{4-[(cyclohexyl-methyl-amino)-methyl]-phenyl}-thiazolo[4,5-d]pyrimidine-2,7-diamine]
87	NS(=O)(=O)c1ccc(Nc2nc3ncnc(Nc4ccc(Br)cc4F)c3s2)cc1 [Cpd 77, 4-[7-(4-bromo-2-fluoro-phenylamino)-thiazolo[4,5-d]pyrimidin-2-ylamino]-benzenesulfonamide]
23.9	CN(Cc1ccc(Nc2nc3ncnc(Nc4ccc(F)c(Cl)c4)c3s2)cc1)C[C@@H]1CCCO1 [Cpd 60, N^7-(3-chloro-4-fluoro-phenyl)-N^2-(4-{[methyl-(2S)-(tetrahydro-furan-2-ylmethyl)-amino]-methyl}-phenyl)-thiazolo[4,5-d]pyrimidine-2,7-diamine]
19.6	COc1ccc(Nc2nc3ncnc(Nc4ccc(F)c(Cl)c4)c3s2)cn1 [Cpd 70, N^7-(3-chloro-4-fluoro-phenyl)-N^2-(6-methoxy-pyridin-3-yl)-thiazolo[4,5-d]pyrimidine-2,7-diamnine]
90.1	Fc1ccc(Nc2ncnc3nc(Nc4ccc(OCCN5CCCC5)cc4)sc23)cc1Cl [Cpd 15, N^7-(3-chloro-4-fluoro-phenyl)-N^2-[4-(2-pyrrolidin-1-yl-ethoxy)-phenyl]-thiazolo[4,5-d]pyrimidine-2,7-diamine]
27.5	C#Cc1cccc(Nc2ncnc3nc(Nc4ccc(CN(CC(C)O)CC(C)O)cc4)sc23)c1 (centres unmarked) [Cpd 61, 1-[{4-[7-(3-ethynyl-phenylamino)-thiazolo[4,5-d]pyrimidin-2-ylamino]-benzyl}-(2-hydroxy-propyl)-amino]-propan-2-ol]

IC50 [nM]	Structure (SMILES)
15.4	N#Cc1ccc(Nc2nc3ncnc(Nc4ccc(F)c(Cl)c4)c3s2)cc1 [Cpd 92, 4-[7-(3-chloro-4-fluoro-phenylamino)-thiazolo[4,5-d]pyrimidin-2-ylamino]-benzonitrile]
11.8	COC[C@@H]1CCCN1Cc1ccc(Nc2nc3ncnc(Nc4ccc(F)c(Cl)c4)c3s2)cc1 [Cpd 26, N^7-(3-chloro-4-fluoro-phenyl)-N^2-[4-(2S)-(2-methoxymethyl-pyrrolidin-1-ylmethyl)-phenyl]-thiazolo[4,5-d]pyrimidine-2,7-diarmine]
117	COc1ccc(Nc2nc3ncnc(Nc4ccc(F)c(Cl)c4)c3s2)cc1 [Cpd 12, N^7-(3-chloro4-fluoro-phenyl)-N^2-(4-methoxy-phenyl)-thiazolo[4,5-d]pyrimidine-2,7-diamine]
10	C#Cc1cccc(Nc2ncnc3nc(Nc4ccc(CN5CCC[C@H]5CO)cc4)sc23)c1 [Cpd 44, (2S)-(1-{4-[7-(3-ethynyl-phenylamino)-thiazolo[4,5-d]pyrimidin-2-ylamino]-benzyl}-pyrrolidin-2-yl)-methanol]
6	Fc1ccc(Nc2ncnc3nc(Nc4ccc(CN5CCCCCC5)cc4)sc23)cc1Cl [Cpd 19, N^2-(4-azepan-1-ylmethyl-phenyl)-N^7-(3-chloro-4-fluoro-phenyl)-thiazolo[4,5-d]pyrimidine-2,7-diamine]
18.2	C#Cc1cccc(Nc2ncnc3nc(Nc4ccc(CN5CCN(C)CC5)cc4)sc23)c1 [Cpd 47, N^7-(3-ethynyl-phenyl)-N^2-[4-(4-methyl-piperazin-1-ylmethyl)-phenyl]-thiazolo[4,5-d]pyrimidine-2,7-diamine]
18	Clc1cccc(Nc2ncnc3nc(Nc4ccc(Cc5ccncc5)cc4)sc23)c1 [Cpd 9, N^7-(3-chloro-phenyl)-N^2-(4-pyridin-4-ylmethyl-phenyl)-thiazolo[4,5-d]pyrimidine-2,7-diamine]
10	C#Cc1cccc(Nc2ncnc3nc(Nc4ccc(CN5CCC[C@@H]5CO)cc4)sc23)c1 [Cpd 54, (2R)-(1-{4-[7-(3-ethynyl-phenylamino)-thiazolo[4,5-d]pyrimidin-2-ylamino]-benzyl}-pyrrolidin-2-yl)-methanol]
10100	NS(=O)(=O)c1ccc(Nc2nc3ncnc(Nc4ccc(CCN5CCOCC5)cc4)c3s2)cc1 [Cpd 85, 4-[7-(4-(morpholin-4-yl)ethyl-phenylamino)-thiazolo[4,5-d]pyrimidin-2-ylamino]-benzenesulfonamide]
3300	NS(=O)(=O)c1ccc(Nc2nc3ncnc(Nc4cccc(CN5CCOCC5)c4)c3s2)cc1 [Cpd 84, 4-[7-(3-(morpholin-4-yl)methyl-phenylamino)-thiazolo[4,5-d]pyrimidin-2-ylamino]-benzenesulfonamide]
6.95	C#Cc1cccc(Nc2ncnc3nc(Nc4ccc(CNCC5COC(C)(C)O5)cc4)sc23)c1 (centres unmarked) [Cpd 62, N^2-(4-{[(2,2-dimethyl-[1,3]dioxolan-4-ylmethyl)-amino]-methyl}-phenyl)-N^7-(3-ethynyl-phenyl)-thiazolo[4,5-d]pyrimidine-2,7-diamine]
49.3	Fc1ccc(Nc2ncnc3nc(Nc4ccc(CN5CCSCC5)cc4)sc23)cc1Cl [Cpd 20, N7-(3-chloro-4-fluoro-phenyl)-N^2-(4-thiomorpholin4-ylmethyl-phenyl)-thiazolo[4,5-d]pyrimidine-2,7-diamine]
10	O=S(=O)(NCCCN1CCOCC1)c1ccc(Nc2nc3ncnc(Nc4ccc(F)c(Cl)c4)c3s2)cc1 [Cpd 41, 4-[7-(3-chloro-4-fluoro-phenylamino)-thiazolo[4,5-d]pyrimidin-2-ylamino]-N-(3-morpholin-4-yl-propyl)-benzenesulfonamide]
10.5	NS(=O)(=O)c1ccc(Nc2nc3ncnc(Nc4cccc(Br)c4)c3s2)cc1 [Cpd 78, 4-[7-(3-bromo-phenylamino)-thiazolo[4,5-d]pyrimidin-2-ylamino]-benzenesulfonamide]
13	C#Cc1cccc(Nc2ncnc3nc(Nc4ccc(CCN5CCOCC5)cc4)sc23)c1 [Cpd 50, N^7-(3-ethynyl-phenyl)-N^2-[4-(2-morpholin-4-yl-ethyl)-phenyl]-thiazolo[4,5-d]pyrimidine-2,7-diamine]
43.4	O=[N+]([O-])c1cc(Nc2ncnc3nc(Nc4ccc(CN5CCOCC5)cc4)sc23)ccc1F [Cpd 65, N^7-(4-fluoro-3-nitro-phenyl)-N^2-(4-morpholin-4-ylmethyl-phenyl)-thiazolo[4,5-d]pyrimidine-2,7-diamine]
